Data as given in US11999755B1, “Effective anticancer drug candidate of dinuclear palladium (II) bis-dihydrozone malonyl complex” (KING FAISAL UNIVERSITY, priority 2024, dated 2024).

Tests used:
[1] = system: HCT-116 (colon carcinoma); assay: SRB anticancer assay, HCT-116; type: cell-based, human; settings: for IC50: SRB stain, 48 hours at 37° C., absorbance 564 nm
Excerpt: (§1) Investigation for the bio-reactivity of H2L and PdL, as anticancer candidates, was achieved versus well documented human cancer cell lines, as three cancers entitled HepG2, MCF-7, and HCT-116, using the simplest tool SRB (sulforhodamine-B-stain). In particular, the most popular anticancer referenced drug (vinblastine) was used in the anticancer assay (the inhibited action of the cancer cells) to compare its bio-reactivity versus that one of H2L and PdL.
(§2) With HepG-2 (Hepatocellular carcinoma), HCT-116 (colon carcinoma), and MCF7 (breast adenocarcinoma), as human cancer cell lines, the antiproliferative reactivity of H2L and PdL was studied against the growth of these cancer cells by applying a spectrometric tool. Using SRB (sulforhodamine-B-stain) was essential in the spectrometric studies at a specific wavelength (564 nm, the optimized absorption wavelength). Recording the corresponded absorbance (A) at 564 nm was accomplished using a UV/Vis. spectrophotometer, UV-1800 mode Shimadzu with a mono-cell holder. With plates of 96-multiwell model, the culture of the current human cancer cell lines of 10^4 cells per well were accomplished followed by a gentle addition of DMSO solution of H2L or PdL the cultured wells of the cancer cell lines.
(§3) The resulting mixed solution of H2L or PdL solution with the subjected cancer cell line of human in SRB was assigned in incubated isolated atmosphere for 48 hours at 37° C. The isolated atmosphere was accomplished by CO2 gas bubbling with v/v […].
(§4) The same procedure was followed with vinblastine, as vinblastine was subjected as a reference anticancer agent to compare its reactivity against that one of the studied H2L and PdL. For WI-38, as the normal human fetal lung fibroblast, the pervious procedure of the cancer cell lines was applied for H2L and PdL to evaluate their selectivity index. Using Eq. 1, below, to derive the inhibited potential of H2L or PdL against the growth of the human cancer and normal cell lines through their effective concentration in M (IC50, the half effective concentration of H2L or PdL): […]

[2] = system: WI-38, normal human fetal lung fibroblast; assay: SRB assay on normal cell line WI-38; type: cell-based; settings: SRB stain, 48 hours at 37° C.
Excerpt: as §1
as §2, with “lines. […]” for “lines.”

[3] = system: HepG-2 (Hepatocellular carcinoma); assay: SRB anticancer assay, HepG-2; type: cell-based, human; settings: for IC50: SRB stain, 48 hours at 37° C., absorbance 564 nm
Excerpt: as §1, §2, §3, §4

[4] = system: MCF7 (breast adenocarcinoma); assay: SRB anticancer assay, MCF-7; type: cell-based, human; settings: for IC50: SRB stain, 48 hours at 37° C., absorbance 564 nm
Excerpt: as §1, §2, §3, §4

SMILES	IC50 [1] [µM]	Selectivity index HCT-116 ([1]; normal WI-38 versus HCT-116)	IC50 [2] [µM]	IC50 [3] [µM]	Selectivity index HepG-2 ([3]; normal WI-38 versus HepG-2)	IC50 [4] [µM]	Selectivity index MCF-7 ([4]; normal WI-38 versus MCF-7)	IC50 ([1]; Homo sapiens, HCT-116) [µM]	IC50 ([3]; Homo sapiens, HepG2) [µM]	IC50 ([4]; Homo sapiens, MCF7) [µM]
O=C(CC(=O)NN=C1C(=O)Nc2ccccc21)NN=C1C(=O)Nc2ccccc21 [H2L, malonyl dihydrazone-isatin ligand]	49.6	2.71	133 ± 0.75	48.6	2.77	43.1	3.09			
CC[C@]1(O)C[C@@H]2CN(CCc3c([nH]c4ccccc34)[C@@](C(=O)OC)(c3cc4c(cc3OC)N(C)[C@H]3[C@@](O)(C(=O)OC)[C@H](OC(C)=O)[C@]5(CC)C=CCN6CC[C@]43[C@@H]65)C2)C1 [Vinblastine, vinblastine, reference compound]								13.3 ± 0.11	7.5 ± 0.1	4.12 ± 0.14
